Data set [1] addresses T1, Human recombinant cyclophilin A (CypA) (Homo sapiens, UniProt P62937).
T1 construct: purchased Sigma C3805
In words: Protease-free PPIase assay, cyclophilin A. The note with it: human recombinant CypA, 10 °C, SUC-AAPF-pNA substrate; read-out: CypA Protease-free PPIase Assay Ki. The format is biochemical. On the procedure: (§1) Protease-Free PPIase Assay The protease-free PPIase assay measures the rate of cis to trans conversion of a peptide substrate catalyzed by the enzyme cyclophilin A or D. Addition of a cyclophilin inhibitor (e.g., a test compound) slows the catalyzed rate and a Ki value is obtained. 35 mM HEPES pH 7.8, filtered through a 0.2 μm filter. 50 μM DTT was added prior to use each day and then the buffer was stored on ice. […] Human recombinant 6-His tagged cyclophilin D (CypD), prepared by the University of Edinburgh, was used to generate CypD inhibition data. Succinimide-[…]-nitroanilide (SUC-AAPF-pNA) (from Bachem AG, L-1400), 20 mg/ml prepared in 0.5 M LiCl in trifluoroethanol. All readings were taken with an Agilent 8453 Spectrophotometer which consisted of a cuvette holder, stirrer and chiller to maintain a stirred cuvette temperature of 10.0±0.1° C. The temperature was monitored by the use of temperature probe. […] The inhibitor was diluted in 100% DMSO, and then added to the assay to a maximum final concentration of 0.5% DMSO in the assay. […] The absorbance was measured at 330 nm for 300 s or 500 s for blank runs (NOTE: the substrate was added in one quick injection and the measurements started immediately to minimize mixing errors). A first order rate equation was fitted to the absorbance data, for each concentration of inhibitor, to obtain the rate constant (the first 10 to 15 seconds were excluded, as mixing causes errors in this portion of the curve). The catalytic rate was calculated from the enzymatic rate constant minus the background rate constant. An exponential curve was generated using the catalytic rate constants versus the inhibitor concentration to obtain the Ki value for the inhibitor. The Ki value is indicative of the binding affinity between the test compound and cyclophilin A.

The target in data set [2] is T2, Human recombinant 6-His tagged cyclophilin D (CypD) (Homo sapiens, UniProt P30405).
T2 construct: 6-His
In words: Protease-free PPIase assay, cyclophilin D. The format is biochemical. The settings on record: human recombinant 6-His CypD, 10 °C, SUC-AAPF-pNA substrate; read-out: CypD Protease-free PPIase Assay Ki. The procedure:
as §1

The target in a further data set is T3, calcineurin (Homo sapiens, UniProt P62937+P63098+Q08209).
T3 construct: purchased Enzo Life Sciences BML-AK804
In words: Calcineurin Phosphatase (CaN) Assay. The class given is biochemical. The settings on record: in the presence of CypA, 1:1 complex of inhibitor with CypA. The source says:
Calcineurin Phosphatase (CaN) Assay
The calcineurin phosphatase assay is a means for estimating the immunosuppressive potential of a test compound. Calcineurin is a serine-threonine protein phosphatase that on activation dephosphorylates members of the nuclear factor of activated T cells (NFAT), which are important in T lymphocyte activation.
To investigate the immunosuppressive potential of exemplary compounds of Formula I, which are cyclosporin analogs, their ability to inhibit calcineurin activity was measured in the presence and absence of CypA.
The CaN assay kit used is based on a colorimetric assay for measuring calcineurin phosphatase activity, and it is commercially available (Enzo Life Sciences and Calbiochem). Calmodulin is also required for calcineurin activity, and RII phosphopeptide is used as an efficient peptide substrate for calcineurin. […] The detection of free phosphate released is based on the classic Malachite green assay.
Enzo Life Sciences CaN Assay Kit: BML-AK804
For samples ‘without CypA’, a 4-point dilution series of the inhibitor was prepared in duplicate to obtain a final assay concentration of 10, 1, 0.1 and 0.01 μM. For samples ‘with CypA’, a 7-point dilution series was prepared to obtain a 1:1 complex of the inhibitor with CypA; the inhibitor and CypA final assay concentrations of 10, 3.33, 1.11, 0.37, 0.12, 0.04, 0.014 μM were prepared.
using the half area 96 well plates supplied with the kit, 10 μl UPW was added to duplicate wells to provide the non-inhibited control. 10 μl of the inhibitor or the inhibitor/CypA complex was added to the appropriate sample wells. 25 μl of the 2× assay buffer with calmodulin (CaM) was added to all wells, then 5 μl of calcineurin phosphatase (CaN) was added to all wells (40 U per well final concentration) except duplicate ‘no calcineurin blank’ wells to which 5 μL 1× assay buffer was added. The assay plate was placed in an oven at 30° C. for 15 minutes to equilibrate to the reaction temperature. The reaction was started by the addition of 10 μl RII-peptide (0.15 mM final concentration). The reaction was allowed to proceed at 30° C. for a time period in which the reaction is linear for about 60 minutes. The reaction was then terminated by adding 100 μl of the Malachite Green reagent. The color was allowed to develop for 15-30 minutes at room temperature before the absorbance at 620 nm was measured using a plate reader (Molecular Devices—SpectraMax M5). The data were analyzed by subtracting ‘no calcineurin blank’ from all the absorbance readings and plotting the background corrected absorbances against Log10 inhibitor concentration. A sigmoidal-dose response curve was fitted to the data using GraphPad Prism Software.
It exerts its immunosuppressive activity by binding to CypA to form a complex, which then binds to calcineurin and thereby inhibits calcineurin activity.

A short description of the next data set: physchem. The note with it: 25 °C, pH 7.4, aqueous buffer, kinetic from dmso stock.

Values after ≈ are worked out from the molar mass of the structure shown. Starred links: 1 amine or outer side, 2 acyl side, 3 side chain; linkers in the order of their positions; H or OH if unused. Non-standard residues stand in square brackets, D forms with d. Residues, ends and D or L forms follow the SMILES beside them. X1 = C[C@@H]1CCO[C@H]1[C@H](C(=O)[*:2])N(C)[*:1]; d(aThr) = C[C@@H](O)[C@@H](N)C(=O)O; NMeL = CN[C@@H](CC(C)C)C(=O)O; dNMeL = CN[C@H](CC(C)C)C(=O)O; dNMeV = CN[C@@H](C(=O)O)C(C)C; dNMeA = CN[C@H](C)C(=O)O

T1 sequence (P62937 whole entry): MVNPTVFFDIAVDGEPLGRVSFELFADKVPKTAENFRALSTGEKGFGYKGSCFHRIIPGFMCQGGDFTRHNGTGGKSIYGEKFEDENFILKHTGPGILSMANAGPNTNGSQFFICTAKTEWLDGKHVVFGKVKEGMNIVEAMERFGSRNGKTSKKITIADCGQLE
T2 sequence (P30405 30-207): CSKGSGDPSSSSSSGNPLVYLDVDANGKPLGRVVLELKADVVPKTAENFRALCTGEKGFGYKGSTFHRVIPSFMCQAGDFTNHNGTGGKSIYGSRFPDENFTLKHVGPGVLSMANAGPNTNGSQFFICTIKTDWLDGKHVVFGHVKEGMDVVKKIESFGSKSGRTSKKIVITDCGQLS
Experimental for physchem: The aqueous solubility of a compound of Formula I in buffer (pH 7.8) was measured by recording the onset of precipitation of the compound as a function of increasing concentration. The onset of precipitation, if it occurred, was detected by an increase in absorbance at 650 nm.
Stock solutions of Control and Test Compounds: 10 mM in 100% DMSO.
10 mM stock solutions of control and test compounds were prepared in 100% DMSO.
Assay buffer (247.5 μl) was placed into a flat bottomed transparent 96-well plate. For blank samples, DMSO (2.5 μl) was added. For test and control samples, 2.5 μl of the appropriate DMSO dilution stocks were added to the appropriate well. All test and control compounds were performed in triplicate.
The plates were sealed with adhesive plate seal and shaken at 250 rpm at 25° C. for 18 h on a plate shaker. After incubation, the plate seals were taken off and any bubbles observed in wells removed. The plates were read on a SpectraMaxM5 with a 5 s pre-shake at 650 nm.
Data files were transferred to the appropriate worksheet and the solubility range of the compounds was calculated from the data.

A word on the Ki: it is a measure of affinity in units of concentration, obtained from inhibition or displacement. Usually IC50 stands for the concentration needed to halve the response being measured. For `CC[C@H]1NC(=O)[C@@H]([C@@H]2OCC[C@H]2C)N(C)C(=O)[C@@H](C(C)C)N(C)C(=O)[C@@H](CC(C)C)N(C)C(=O)[C@@H](CC(C)C)N(C)C(=O)[C@H](C)NC(=O)[C@@H](C)NC(=O)[C@@H](CC(C)C)N(C)C(=O)[C@@H](C(C)C)NC(=O)[C@H](CC(C)C)N(C)C(=O)CN(C)C1=O` [Compound 4, [(2S)-2-(methylamino)-2-[(2R,3R)-3-methyltetrahydrofuran-2-yl]acetic acid]^1 cyclosporin A], the Ki in data set [1] stood at 509 nM; in data set [2] it was 920 nM. Also, at calcineurin, the IC50 was > 10000 nM.

The term solubility denotes the dissolved amount per volume that the medium holds. A lower solubility goes with a poorly soluble substance. As to `CC(C)C[C@@H]1C(=O)N(C)[C@H](CC(C)C)C(=O)N(C)[C@H](C(C)C)C(=O)N(C)[C@H]([C@@H]2OCC[C@H]2C)C(=O)N[C@H]([C@@H](C)O)C(=O)N(C)CC(=O)N(C)[C@@H](CC(C)C)C(=O)N[C@H](C(C)C)C(=O)N(C)[C@H](CC(C)C)C(=O)N[C@H](C)C(=O)N[C@@H](C)C(=O)N1C` [Compound 8, [(2S)-2-(methylamino)-2-[(2R,3R)-3-methyltetrahydrofuran-2-yl]acetic acid]^1 cyclosporin C], the Ki in data set [1] was 1500 nM; in data set [2], 105 nM. Moreover, the solubility at 18 h in “physchem” was > 100 µM. For the same compound, the IC50 on calcineurin is > 10000 nM.

For `CCC[C@@H]1C(=O)N(C)[C@@H](CC(C)C)C(=O)N[C@H](C(C)C)C(=O)N(C)[C@H](CC(C)C)C(=O)N[C@H](C)C(=O)N[C@@H](C)C(=O)N(C)[C@H](CC(C)C)C(=O)N(C)[C@H](CC(C)C)C(=O)N(C)[C@H](C(C)C)C(=O)N(C)[C@H]([C@@H]2OCC[C@H]2C)C(=O)N[C@H](CC)C(=O)N1C` [Compound 2, [(2S)-2-(methylamino)-2-[(2R,3R)-3-methyltetrahydrofuran-2-yl]acetic acid]^1 [(R)-propyl-Sar]^3 cyclosporin A], the Ki in data set [1] was 237 nM; in data set [2] it was 39 nM. In the data set “physchem”, the solubility at 18 h is 50 µM (≈ 60.8 µg/mL). For the same compound, the IC50 at calcineurin was > 10000 nM.

As for `CC(C)C[C@@H]1C(=O)N(C)[C@H](CC(C)C)C(=O)N(C)[C@H](C(C)C)C(=O)N(C)[C@H]([C@@H]2OC(O)C[C@H]2C)C(=O)N[C@H](C(C)C)C(=O)N(C)CC(=O)N(C)[C@@H](CC(C)C)C(=O)N[C@H](C(C)C)C(=O)N(C)[C@H](CC(C)C)C(=O)N[C@H](C)C(=O)N[C@@H](C)C(=O)N1C` (stereo partly drawn) [Compound 13, [(2S)-2-[(2R,3R)-5-Hydroxy-3-methyl-tetrahydrofuran-2-yl]-2-(methylamino)acetic acid]^1 cyclosporin D], the Ki in data set [1] turned out to be 414 nM; in data set [2] it was 840 nM. Also, the IC50 at calcineurin was > 10000 nM.

Take `CC[C@H]1NC(=O)[C@@H]([C@@H]2OCCCC[C@H]2C)N(C)C(=O)[C@@H](C(C)C)N(C)C(=O)[C@@H](CC(C)C)N(C)C(=O)[C@@H](CC(C)C)N(C)C(=O)[C@H](C)NC(=O)[C@@H](C)NC(=O)[C@@H](CC(C)C)N(C)C(=O)[C@@H](C(C)C)NC(=O)[C@H](CC(C)C)N(C)C(=O)CN(C)C1=O` [Compound 16, [(2S)-2-(methylamino)-2-[(2R,3R)-3-methyloxepan-2-yl]acetic acid]^1 cyclosporin A]: the figures for the Ki in data set [1] and in data set [2] were 386 nM and 560 nM, respectively. On calcineurin, the IC50 stood at 6670 nM.

For the compound `CC[C@H]1NC(=O)[C@@H]([C@@H]2OC(O)C[C@H]2C)N(C)C(=O)[C@@H](C(C)C)N(C)C(=O)[C@@H](CC(C)C)N(C)C(=O)[C@@H](CC(C)C)N(C)C(=O)[C@H](C)NC(=O)[C@@H](C)NC(=O)[C@@H](CC(C)C)N(C)C(=O)[C@@H](C(C)C)NC(=O)[C@H](CC(C)C)N(C)C(=O)[C@@H](C)N(C)C1=O` (stereo partly drawn) [Compound 12, [(2R)-2-[(2R,3R)-5-hydroxy-3-methyl-tetrahydrofuran-2-yl]-2-(methylamino)acetic acid]^1[(R)-methyl-Sar]^3 cyclosporin A], the Ki in data set [1] turned out to be 49 nM; in data set [2], 12 nM. Moreover, the IC50 at calcineurin was > 10000 nM.

Regarding `CC[C@H]1NC(=O)[C@@H]([C@@H]2OCCCC[C@H]2C)N(C)C(=O)[C@@H](C(C)C)N(C)C(=O)[C@@H](CC(C)C)N(C)C(=O)[C@@H](CC(C)C)N(C)C(=O)[C@H](C)NC(=O)[C@@H](C)NC(=O)[C@@H](CC(C)C)N(C)C(=O)[C@@H](C(C)C)NC(=O)[C@H](CC(C)C)N(C)C(=O)[C@@H](C)N(C)C1=O` [Compound 17, [(2S)-2-(methylamino)-2-[(2R,3R)-3-methyloxepan-2-yl]acetic acid]^1 [(R)-methyl-Sar]^3 cyclosporin A], the Ki in data set [1] turned out to be 105 nM; in data set [2] it was 85 nM. For the same compound, at calcineurin, the IC50 is 7740 nM.

Take `CC(C)C[C@@H]1C(=O)N(C)[C@H](CC(C)C)C(=O)N(C)[C@H](C(C)C)C(=O)N(C)[C@H]([C@@H]2OCC[C@H]2C)C(=O)N[C@H]([C@@H](C)O)C(=O)N(C)[C@H](C)C(=O)N(C)[C@@H](CC(C)C)C(=O)N[C@H](C(C)C)C(=O)N(C)[C@H](CC(C)C)C(=O)N[C@H](C)C(=O)N[C@@H](C)C(=O)N1C` [Compound 11, [(2S)-2-(methylamino)-2-[(2R,3R)-3-methyltetrahydrofuran-2-yl]acetic acid]^1 [(R)-methyl-Sar]^3 cyclosporin C] (cyclo(A[dNMeL][dNMeL][dNMeV][X1][d(aThr)][dNMeA][NMeL][dV][dNMeL][dA])): the inhibition constant (Ki) is 270 nM in data set [1] and 18 nM in data set [2]. The IC50 at calcineurin was > 10000 nM.

Regarding “[(2R)-2-[(5R,6R)-3,5-dimethyl-2-oxo-1,3-oxazinan-6-yl]-2-(methylamino)acetic acid]^1 cyclosporin A [Compound 21]”, the Ki in data set [1] was found to be 304 nM; in data set [2], 42 nM. In addition, at calcineurin, the IC50 is 8160 nM.

As for `CC[C@H]1NC(=O)[C@@H]([C@@H]2OCN(C)C[C@H]2C)N(C)C(=O)[C@@H](C(C)C)N(C)C(=O)[C@@H](CC(C)C)N(C)C(=O)[C@@H](CC(C)C)N(C)C(=O)[C@H](C)NC(=O)[C@@H](C)NC(=O)[C@@H](CC(C)C)N(C)C(=O)[C@@H](C(C)C)NC(=O)[C@H](CC(C)C)N(C)C(=O)CN(C)C1=O` [Compound 23, [(2R)-2-[(5R,6R)-3,5-dimethyl-1,3-oxazinan-6-yl]-2-(methylamino)acetic acid]^1 cyclosporin A], the Ki stood at 754 nM in data set [1] and 280 nM in data set [2]. The IC50 at calcineurin is > 10000 nM.

As to `CC[C@H]1NC(=O)[C@@H]([C@@H]2OCCC[C@H]2C)N(C)C(=O)[C@@H](C(C)C)N(C)C(=O)[C@@H](CC(C)C)N(C)C(=O)[C@@H](CC(C)C)N(C)C(=O)[C@H](C)NC(=O)[C@@H](C)NC(=O)[C@@H](CC(C)C)N(C)C(=O)[C@@H](C(C)C)NC(=O)[C@H](CC(C)C)N(C)C(=O)[C@@H](C)N(C)C1=O` [Compound 15, [(2S)-2-(methylamino)-2-[(2R,3R)-3-methyltetrahydropyran-2-yl]acetic acid]^1 [(R)-methyl-Sar]^3 cyclosporin A], the Ki was 38 nM in data set [1] and 46 nM in data set [2]. Further, at calcineurin, the IC50 turned out to be 5290 nM.

The values above are taken from US9914755B2, “Cyclosporin derivatives wherein the MeBmt sidechain has been cyclized” (Allergan, Inc., priority 2015, dated 2018).
